Experimental data from ChEMBL document CHEMBL5370584, “Reprogramming Energy Metabolism with Synthesized PDK Inhibitors Based on Dichloroacetate Derivatives and Targeted Delivery Systems for Enhanced Cancer Therapy” (J Med Chem, 2023).
Calls of active or inactive are those of the source. The calls are words filed in the database; no cut-off is given here.

How the values were obtained:
COS-7 [1] = assay: Effect on PDHA1 expression in African monkey COS7 cells at 12 uM measured after 24 hrs; assay type: functional, cell-based; details: Chlorocebus aethiops
4T1 [2] = assay: Induction of apoptosis in mouse 4T1 cells assessed as increase in proportion of apoptotic cells incubated for 24 hrs by annexin V-FITC/PI staining based flow cytometry analysis; assay type: functional, cell-based; details: dose 2-3 µM
[3] = Toxicity in BALB/c mouse assessed as effect on heart at 0.15 to 1.5 mg/kg measured upto 16 days; assay type: organism-based; details: in vivo, 384 h, dose 0.15-1.5 mg/kg, time < 16 day
4T1 [4] = assay: Recovery in mitochondrial function in mouse 4T1 cells assessed as increase in OCR/ECAR ratio; assay type: functional, cell-based; details: dose 2-6 µM
[5] = Toxicity in BALB/c mouse assessed as effect on kidney at 0.15 to 1.5 mg/kg measured upto 16 days; assay type: organism-based; details: in vivo, 384 h, dose 0.15-1.5 mg/kg, time < 16 day
COS-7 [6] = assay: Effect on PDK4 expression in African monkey COS7 cells at 12 uM measured after 24 hrs; assay type: functional, cell-based; details: Chlorocebus aethiops
[7] = Toxicity in BALB/c mouse assessed as effect on ALT level at 0.15 to 1.5 mg/kg measured upto 16 days; assay type: organism-based; details: in vivo, 384 h, dose 0.15-1.5 mg/kg, time < 16 day
[8] = Toxicity in BALB/c mouse assessed as effect on UA level at 0.15 to 1.5 mg/kg measured upto 16 days; assay type: organism-based; details: in vivo, 384 h, dose 0.15-1.5 mg/kg, time < 16 day
[9] = Toxicity in BALB/c mouse assessed as effect on spleen at 0.15 to 1.5 mg/kg measured upto 16 days; assay type: organism-based; details: in vivo, 384 h, dose 0.15-1.5 mg/kg, time < 16 day
4T1 [10] = assay: Downregulation of PHDC at Ser293 residues in mouse 4T1 cells at 4 uM incubated for 24 hrs by Western blot analysis; assay type: functional, cell-based
4T1 [11] = assay: Induction of apoptosis in mouse 4T1 cells assessed as activation of cytochrome C release from mitochondria to cytosol at 1 to 4 uM incubated for 12 hrs; assay type: functional, cell-based; details: dose 1-4 µM
4T1 [12] = assay: Antiproliferative activity against mouse 4T1 cells assessed as inhibition of cell growth incubated for 24 hrs by MTT assay; assay type: functional, cell-based; details: 4T1, 24 h
MOLM-13 = assay: Antiproliferative activity against human MOLM-13 cells assessed as inhibition of cell growth incubated for 24 hrs by MTT assay; assay type: functional, cell-based; details: MOLM-13, 24 h
[13] = molecular target: [Pyruvate dehydrogenase (acetyl-transferring)] kinase isozyme 1, mitochondrial (Homo sapiens, UniProt Q15118); assay: Inhibition of PDK1 (unknown origin) incubated for 30 mins in presence of ATP by kinase glo luminescent kinase assay
[14] = Toxicity in BALB/c mouse assessed as effect on lung at 0.15 to 1.5 mg/kg measured upto 16 days; assay type: organism-based; details: in vivo, 384 h, dose 0.15-1.5 mg/kg, time < 16 day
[15] = molecular target: [Pyruvate dehydrogenase (acetyl-transferring)] kinase isozyme 2, mitochondrial (Mus musculus) (UniProt Q9JK42); assay: Inhibition of PDK2 transcription in mouse 4T1 cells at 4 uM incubated for 24 hrs by qPCR analysis; assay type: cell-based

Chain of [Pyruvate dehydrogenase (acetyl-transferring)] kinase isozyme 1, mitochondrial (Q15118 whole entry): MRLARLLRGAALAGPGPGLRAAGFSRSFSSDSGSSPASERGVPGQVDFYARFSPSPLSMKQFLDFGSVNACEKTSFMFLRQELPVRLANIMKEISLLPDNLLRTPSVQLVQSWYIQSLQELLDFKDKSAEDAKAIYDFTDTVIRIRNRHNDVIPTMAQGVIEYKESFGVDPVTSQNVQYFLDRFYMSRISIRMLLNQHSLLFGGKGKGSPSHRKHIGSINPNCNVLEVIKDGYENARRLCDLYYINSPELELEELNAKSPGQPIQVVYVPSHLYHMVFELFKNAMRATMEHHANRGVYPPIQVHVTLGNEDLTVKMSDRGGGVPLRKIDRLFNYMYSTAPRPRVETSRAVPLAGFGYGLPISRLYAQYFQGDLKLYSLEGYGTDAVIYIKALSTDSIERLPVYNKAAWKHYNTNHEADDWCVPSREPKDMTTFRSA

With O=C(CCCCCNC(=O)C(Cl)Cl)Nc1ccc([As]2SCCCS2)cc1 the Activity (COS-7 [1]) was “inactive”, the Activity (4T1 [2]) was “Dose-Dependent Effect” and the Activity [3] was “Non-Toxic”. For the same compound, the Activity (4T1 [4]) was “Dose-Dependent Effect”, the Activity [5] was “Non-Toxic” and the Activity (COS-7 [6]) was “inactive”. The Activity [7] was “Non-Toxic”, the Activity [8] was “Non-Toxic” and the Activity [9] was “Non-Toxic”. The Activity (4T1 [10]) was “Active”, the Activity (4T1 [11]) was “Active” and the IC50 (4T1 [12]) was 1920 nM. The IC50 (MOLM-13) was 1350 nM, the EC50 [13] was 68 nM and the Activity [14] was “Non-Toxic”. The inhibition [15] was “Active”.
